Results on two compounds are retold here after patent US11384071B2, “Inhibitors of mechanotransduction to treat pain and modulate touch perception” (Max-Delbrück-Centrum für Molekulare Medizin in der …, priority 2016, dated 2022).

The target of assay [1] is T1, STOML3-FLAG (Mus musculus, UniProt Q6PE84).
T1 construct: expressed in transfected cells; host or cells: N2A (Neuro2A)
Description: dSTORM imaging of STOML3-FLAG cluster size at the plasma membrane of N2A cells. The class given is cell-based. Particulars: pre-incubation three hours, 20 μM, vs vehicle. The method, then: N2A cells were cultured on EHS-Laminin coated precision coverglass, thickness 0.17, then transfected with a plasmid encoding STOML3-FLAG. After overnight incubation, cells were treated for 3 hours with 20 μM compound, or DMSO as a control. Cells were then fixed (15 min, 4% PFA), permeabilized (0.05% TritonX 100, 5 min) and blocked (phosphate buffered saline (PBS) containing 10% fetal goat serum (FGS), 37° C., 1 hr). Cell were labeled with mouse anti-FLAG antibody (M2 clone, 1:100 in PBS containing 10% FGS). The secondary antibody was an Alexa647-conjugated, goat anti-mouse antibody (1:100 in PBS plus 10% FGS, 1 h, 37° C.). After staining, the samples were fixed again. […]
For analysis of STOML3 domain size, all reconstructed images were blinded and then from each imaged cell 100 individual dots were cropped (size: 20×20 pixels). A 2D-Gaussian fit was calculated using the Igor software (WaveMetrics, USA). […] After domain sizes had been determined for each cell, images were unblinded and then normalized against the average domain size for control cells prepared and imaged on the same day.
We next determined whether OB-1 and OB-2 modulation of STOML3 oligomerization state influences clustering of the protein in the plasma membrane. […]

The subject of assay [2] is Piezo1 currents in N2A cells. Kind of assay: Pillar array patch-clamp analysis of mechanotransduction in N2A cells. The class given is cell-based. The method, then: Whole-cell, patch-clamp recordings were conducted as previously described 5-7, using patch pipettes with a tip resistance of 3-6 MΩ, filled with a solution of: 110 mM KCl, 10 mM NaCl, 1 mM MgCl2, 1 mM EGTA and 10 mM HEPES, adjusted to pH 7.3 with KOH. (For experiments on DRG neurons 10 mM QX-314 was added to the pipette to block voltage-gated sodium channels 8 Extracellular solutions contained 140 mM NaCl, 4 mM KCl, 2 mM CaCl2, 1 mM MgCl2, 4 mM glucose, 10 mM HEPES, adjusted to pH 7.4 with NaOH. A Zeiss 200 inverted microscope and an EPC-10 amplifier in combination with Patchmaster software was used, data was analyzed using Fitmaster software (HEKA Electronik GmbH, Germany). Pipette and membrane capacitance were compensated using the auto function of Patchmaster, series resistance was compensated by at least 60% to minimize voltage errors. Mechanical stimuli were applied using a polished glass probe driven by the MM3A micromanipulator (Kleindiek Nanotechnik, Germany). Mechanical stimuli were applied by either; indenting the cell soma or by culturing cells on elastomeric pillar arrays and applying the stimulus to the cell-substrate interface by deflecting an individual pilus.
Briefly, elastomeric pillar arrays of defined dimensions were cast in PDMS with an elasticity of 2 MPa. Cells cultured on these arrays were monitored using whole-cell patch-clamp whilst a glass probe was used to apply repeated deflections (of differing magnitudes) to an individual pilus directly beneath the cell. Images were obtained of the pilus before and after deflection and images were analyzed off-line to determine the exact deflection for each data point. Images were obtained using a 40×LD objective and a CoolSNAP EZ CCD camera. Images were analyzed off-line using Igor software (WaveMetrics, USA). The collection of stimulus-response data using pillar arrays generates data sets with variation in both x and y. In order to effectively compare groups for each cell studied we binned response data by stimulus size in the following bins: 0-10, 10-50, 50-100, 100-250, 250-500, 500-1000. For each cell, current amplitudes within each bin were averaged and then bins averaged between cells—we then tested for significance by testing whether the current amplitude for a given stimulation range (i.e. bin) differed between samples. A power analysis was used to determine that moderate to strong effects between samples could be detected with a sample size >4. Data sets were in excess of this number. To distinguish mechanoreceptors from nociceptors in the mixed population of acutely prepared DRG neurons, the shape of the generated action potential (AP) was used. […] For quantitative analysis of mechanosensitivity we measured responses in the most sensitive sub-population of mechanoreceptors, previously defined as Typell mechanoreceptors (Poole et al., 2014). This population was identified as those cells with APs lacking a hump in the falling phase and a full width at half maximum (FWHM) of at least 0.7 ms, (average, ±s.e.m.: 0.9±0.04 ms)
Endogenously expressed STOML3 in N2A cells is required to maintain Piezo channel sensitivity to membrane deflection^2. By precisely deflecting defined areas of the membrane-substrate interface using a pillar array we could activate Piezo1 currents in N2A cells with displacements ranging from 100-1000 nm (FIG. 2a). Both OB-1 and OB-2 reduced the sensitivity of mechanosensitive currents to pillar deflection (FIG. 2b). […]

T1 sequence (Q6PE84 whole entry): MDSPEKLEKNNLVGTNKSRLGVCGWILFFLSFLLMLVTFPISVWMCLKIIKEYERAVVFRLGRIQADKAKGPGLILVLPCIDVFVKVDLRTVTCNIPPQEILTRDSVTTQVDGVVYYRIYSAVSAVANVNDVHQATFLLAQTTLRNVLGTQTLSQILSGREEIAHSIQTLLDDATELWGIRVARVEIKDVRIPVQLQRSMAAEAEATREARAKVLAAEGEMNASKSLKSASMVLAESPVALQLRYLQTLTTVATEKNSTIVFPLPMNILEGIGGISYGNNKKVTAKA

Usually Hill coefficient stands for a measure of the steepness of the concentration-response curve. For orientation: IC50 means the point on the concentration scale where inhibition reaches its midpoint. Regarding `CCOC(=O)c1c(-c2ccccc2)oc2ccc(Oc3c([N+](=O)[O-])ncn3C)cc12` [OB-1, Ethyl 5-((1-methyl-4-nitro-1H-imidazol-5-yl)oxy)-2-phenylbenzofuran-3-carboxylate], the STOML3-FLAG cluster size entry in assay [1] is “significantly reduced”. Besides, the “sensitivity of mechanosensitive currents to pillar deflection” value in assay [2] is “reduced”. Moreover, in assay [2] (20 μM OB-1), the “pre-incubation time for maximal reduction of Piezo1 current amplitudes” value amounted to 3 h. Also, the Hill coefficient in assay [2] (Piezo1 current) was determined as 0.6. In addition, in assay [2] (calculated from concentration dependence, read-out: IC50 on mechanically-activated (Piezo1) currents), the IC50 is 10 nM.

On to `Cc1ccnc(NC(=O)CSc2nnc3c4ccccc4n(Cc4ccccc4)c3n2)c1` [OB-2], for which, in assay [1], the STOML3-FLAG cluster size result is “significantly reduced”. Besides, the “sensitivity of mechanosensitive currents to pillar deflection” value in assay [2] is recorded as “reduced”.
